In PubChem BioAssay (NCI):
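Five compound concentrations were applied to cells in 96-well plates for 48 hours; endpoints were derived by simple linear interpolation of the resulting dose-response curve. GI50: concentration for 50% inhibition of growth. TGI marks complete inhibition of growth.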

Assays:
Assay in all cases: NCI tumour cell line growth inhibition, 48 h
HS 578T breast = test system: HS 578T breast
SK-MEL-28 melanoma = test system: SK-MEL-28 melanoma
NCI-H23 lung = test system: NCI-H23 lung
NCI-H460 lung = test system: NCI-H460 lung
RPMI-8226 leukemia = test system: RPMI-8226 leukemia
SNB-19 CNS = test system: SNB-19 CNS
SNB-75 CNS = test system: SNB-75 CNS
T-47D breast = test system: T-47D breast
SF-539 CNS = test system: SF-539 CNS
BT-549 breast = test system: BT-549 breast
UO-31 renal = test system: UO-31 renal
SK-MEL-5 melanoma = test system: SK-MEL-5 melanoma
DU-145 prostate = test system: DU-145 prostate
A549 NSCLC = test system: A549 NSCLC
786-0 renal = test system: 786-0 renal
OVCAR-3 ovarian = test system: OVCAR-3 ovarian
PC-3 prostate = test system: PC-3 prostate
ACHN renal = test system: ACHN renal
K-562 leukemia = test system: K-562 leukemia
SF-295 CNS = test system: SF-295 CNS
SK-MEL-2 melanoma = test system: SK-MEL-2 melanoma
HOP-92 NSCLC = test system: HOP-92 NSCLC
A498 renal = test system: A498 renal
HT29 colon = test system: HT29 colon
TK-10 renal = test system: TK-10 renal
HL-60(TB) leukemia = test system: HL-60(TB) leukemia
U251 CNS = test system: U251 CNS
OVCAR-4 ovarian = test system: OVCAR-4 ovarian
SN12C renal = test system: SN12C renal

## COc1ccc(/C=N/C2=NNC(C)(c3ccccc3O)N2C(Cc2c[nH]c3ccccc23)C(=O)O)cc1 (configuration not stated)
HS 578T breast
  TGI: 21.7 µM
SK-MEL-28 melanoma
  GI50: 2.67 µM
  TGI: 8.41 µM
NCI-H23 lung
  GI50: 2.28 µM
  TGI: 8.61 µM
NCI-H460 lung
  GI50: 2.55 µM
  TGI: 8.51 µM
RPMI-8226 leukemia
  GI50: 2.14 µM
  TGI: 7.65 µM
SNB-19 CNS
  GI50: 3.76 µM
  TGI: 14.6 µM
SNB-75 CNS
  GI50: 1.72 µM
  TGI: 13.4 µM
T-47D breast
  GI50: 1.55 µM
  TGI: 12.2 µM
SF-539 CNS
  GI50: 2.75 µM
  TGI: 10.3 µM
BT-549 breast
  GI50: 2.24 µM
  TGI: 7.62 µM
UO-31 renal
  GI50: 1.62 µM
  TGI: 11.2 µM
SK-MEL-5 melanoma
  GI50: 1.66 µM
  TGI: 3.09 µM
DU-145 prostate
  GI50: 4.13 µM
  TGI: 17.8 µM
A549 NSCLC
  GI50: 4.44 µM
  TGI: 30.5 µM
786-0 renal
  GI50: 3.36 µM
  TGI: 13 µM
OVCAR-3 ovarian
  GI50: 3.05 µM
  TGI: 11.7 µM
PC-3 prostate
  GI50: 2.68 µM
  TGI: 11.6 µM
ACHN renal
  GI50: 3.02 µM
  TGI: 14.7 µM
K-562 leukemia
  GI50: 2.38 µM
  TGI: 11.6 µM
SF-295 CNS
  GI50: 2.12 µM
  TGI: 7.35 µM
SK-MEL-2 melanoma
  GI50: 2.27 µM
  TGI: 5.81 µM
HOP-92 NSCLC
  GI50: 1.31 µM
  TGI: 5.17 µM
A498 renal
  GI50: 3.1 µM
  TGI: 9.03 µM
HT29 colon
  GI50: 2.36 µM
  TGI: 9.51 µM
TK-10 renal
  GI50: 5.01 µM
  TGI: 10.9 µM
HL-60(TB) leukemia
  GI50: 2.28 µM
  TGI: 8.9 µM
U251 CNS
  GI50: 3.44 µM
  TGI: 11.6 µM
OVCAR-4 ovarian
  GI50: 2.26 µM
  TGI: 15.1 µM
SN12C renal
  GI50: 3.11 µM
  TGI: 11.3 µM
